Where “and” joins values, the source holds several entries; their conditions need not be identical. Identical values can stand only once.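 Five concentrations, 48 hours, 96-well plates. Here, GI50 denotes the concentration required for 50% inhibition of growth. The concentration for full growth arrest is given as TGI.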
Experiments:
Assay in all cases: DTP human tumour cell line panel, 48 h
[1] = tested on: COLO 205 colon
[2] = tested on: M19-MEL melanoma
[3] = tested on: NCI-H460 lung
[4] = tested on: RXF 393 renal
[5] = tested on: SK-OV-3 ovarian
[6] = tested on: SNB-78 CNS
[7] = tested on: UO-31 renal
[8] = tested on: DLD-1 colon
[9] = tested on: DU-145 prostate
[10] = tested on: NCI/ADR-RES ovarian
[11] = tested on: T-47D breast

Compound	TGI [1] [µM]	TGI [2] [µM]	TGI [3]	TGI [4] [µM]	TGI [5]	TGI [6] [µM]	TGI [7] [µM]	TGI [8] [µM]	GI50 [1] [µM]	TGI [9] [µM]	TGI [10] [µM]	GI50 [4] [µM]	GI50 [5] [µM]	TGI [11] [µM]	GI50 [8] [µM]	GI50 [3] [µM]	GI50 [7] [µM]
CC(=O)OC1CCC2OOC1O2 (centres undefined)	> 100	> 100	> 100 µM	> 100	> 100 µM	> 100	> 100										
Cc1ccc2c(c1)-c1c3c(nn1C)-c1ccccc1SC3O2 (centres undefined)	> 100	> 100	> 100 µM	> 100	> 100 µM	> 100	88.7	> 100									
O=C(O)c1ccc2c(c1)C(=O)N(c1ccc(S(=O)(=O)c3ccc(N4C(=O)c5ccc(C(=O)O)cc5C4=O)cc3)cc1)C2=O	> 100	> 100	> 100 µM	> 100	> 100 µM	> 100	> 100										
COc1cccc2c1C(=O)c1c(O)c3c(c(O)c1C2=O)C[C@@](O)(C(=O)CO)CC3OC1CC(N)C(OC2CCCCO2)C(C)O1 (some centres undefined)			1.08 µM and 5.09 µM		2.09 µM and 12 µM	26.5	5.46	17.8	0.02	0.0489	4.06	0.12	0.0465	0.925			
COc1ccc(CN2C(=O)[C@@H]3Cc4c(OC)c(C)c(OC)c(OC)c4[C@H](/C2=C\c2cc(OC)c(OC)c(C)c2OC)N3C(=O)OC(C)C)cc1	> 100	> 100	> 100 µM	> 100	> 100 µM		> 100	> 100									
Cc1ccccc1NC(=O)/C(=N\NC(N)=S)C(C#N)c1ccccc1 (centres undefined)	> 100	> 100	> 100 µM	> 100	> 100 µM	> 100	> 100	> 100									
N#C/C(=C\c1cc(O)c(O)c(O)c1)C(N)=O	> 100	> 100	> 100 µM	> 100	> 100 µM	> 100	> 100	> 100		> 100	> 100			> 100			
C/C=C(\N=C=S)C(=O)OC1C(COC(C)=O)OC([C@]2(O)CC(=O)C(=N)C(C(=O)O)=C2O)C(O)C1OC1CC(OC)C(O)([C@@H](C)OC(=O)[C@@H](C)CC)C(C)O1 (some centres undefined)	13.3	6.24	47.5 µM	15.5	52 µM	26.4	33.3	24.9		39.2	> 100			42.1			
CN(C)NC(=O)/C(=C/c1ccc(Cl)cc1)NC(=O)c1ccccc1	> 100	> 100	> 100 µM	> 100	> 100 µM		> 100	> 100									
CN(C)NC1=C([N+](=O)[O-])C=NN(c2ccccc2)C1	3.27	3.23	4.1 µM	3.46	3.46 µM	4.3	3.19	3.6									
Cc1ccccc1NC(=O)Cc1nc2ccccc2s1	> 100		38.2 µM	33	43.3 µM	32.6	23.7	> 100									
CC1(C)c2ccccc2N2C(c3ccccc3)=NOC21C (centres undefined)	> 100	> 100	> 100 µM	> 100	> 100 µM	> 100	> 100	> 100									
COC(=O)c1c(O)ccc(O)c1C(C(C)=O)C(C)=O	> 100	> 100	> 100 µM	> 100	> 100 µM	> 100	> 100	> 100									
C[P+]1(Cc2ccccc2)CCCC1	> 100	> 100	> 100 µM	> 100	> 100 µM	> 100	> 100	> 100									
Cc1cccc(C)c1NC(=O)CCC(=O)NC(N)=NC#N	> 100	> 100	> 100 µM	> 100	> 100 µM		> 100	> 100									
CC(=O)[CH-]C(=O)c1ccccc1.CC(=O)[CH-]C(=O)c1ccccc1.Cl.[O-]c1ccnc2ccccc12.[O-]c1ccnc2ccccc12.[Ti+4]	> 100		> 100 µM		> 100 µM		> 100	> 100	> 100				> 100		> 100	> 100	> 100

Compound	TGI [1] [µM]	TGI [2] [µM]	TGI [3]	TGI [4] [µM]	TGI [5]	TGI [6] [µM]	TGI [7] [µM]	TGI [8] [µM]	GI50 [1] [µM]	TGI [9] [µM]	TGI [10] [µM]	GI50 [4] [µM]	GI50 [5] [µM]	TGI [11] [µM]	GI50 [8] [µM]	GI50 [3] [µM]	GI50 [7] [µM]
CC1OC(n2cc(C(F)(F)F)c(=O)[nH]c2=O)C=CC1=O (centres undefined)	35.2	43.3	48.6 µM		44.9 µM	31.5	33	38.2									
O=C(NC1CC1)c1c(O)[nH]c(=S)[nH]c1=O	> 100	> 100	> 100 µM		> 100 µM	> 100	> 100	> 100									
Cc1ccc(S(=O)(=O)OCOS(=O)(=O)c2ccc(C)cc2)cc1	> 100	> 100	> 100 µM	> 100	> 100 µM		> 100	> 100									
O=c1nc2sc3ccccc3c(=O)n2[nH]1	> 100	> 100	> 100 µM	> 100	> 100 µM	> 100	> 100	> 100									
CC1(C)C(=O)OC(n2cc(F)c(=O)[nH]c2=O)C1=O (centres undefined)	> 100	> 100	> 100 µM	> 100	> 100 µM	> 100	> 100	> 100									
Cc1cccc(NC(=O)C(=O)C(C2OC(=O)c3ccccc32)[N+](=O)[O-])c1C (centres undefined)	29.1	3.91	18.7 µM	20.7	26.7 µM	> 100	21.4	23.1									
CCC12C=CCN(CCc3c([nH]c4ccccc34)/C=C\1)C2 (centres undefined)	> 100	> 100	> 100 µM				> 100										
N#Cc1c2ccccc2c(Cc2ccc3c(c2)OCCOCCOCCOCCOCCO3)c2ccccc12			25.1 µM	7.94	27.9 µM	31.9	15.4	22									
COC(=O)C1=CC2C(=O)OC1C1C(=O)NC(=O)C21 (centres undefined)	> 100	> 100	> 100 µM		> 100 µM	> 100	> 100	> 100									
C=C1C(=O)O[C@H](c2ccoc2)C[C@@H]1[C@@]1(C)CCCC2(C)C(=O)OCC21 (some centres undefined)	> 100	> 100	> 100 µM	> 100	> 100 µM	> 100	> 100										
CCOC(=O)C1=C(C)NC(=O)NC1c1ccc(OC)cc1OC (centres undefined)	> 100	> 100	> 100 µM	> 100	> 100 µM	> 100	> 100	> 100									
Nc1cccc2c1-c1c(cccc1[N+](=O)[O-])C2=O	> 100	> 100	> 100 µM	> 100	> 100 µM	> 100	0.469	> 100									
CCOC(=O)c1cc(=O)n(C)c(=O)n1C	> 100	> 100	> 100 µM	> 100	> 100 µM	> 100	> 100	> 100									
N#C/C(=C\c1c(O)cc(O)cc1O)C(N)=O	> 100		> 100 µM	> 100	> 100 µM	> 100	> 100	> 100									
O=C(/C=C/c1ccc(Cl)c(Cl)c1)c1ccccc1Cl	30.6	17.2	27.2 µM	31.6	57.8 µM	32.3	27.8	10.4									
Cn1[nH]cc2ccc3nc4ccccc4c(=O)c3c21	92.6	46.8	> 89.5 µM	44.4	> 100 µM	> 83.9	52.3	> 100									

Source: PubChem BioAssay (NCI)
